Measured values reported in patent US12582706B2, “Tolerogenic antigen presenting cells” (Cell4Cure AB, priority 2019, dated 2026).

Experiments:
DCs [1] = experiment: DC expression of CD103 (flow cytometry); type: cell-based, human; conditions: Example 13, FIG. 13(E); compared to control DCs
Experimental: (§1) CD14^+ monocytes were cultured at 1.25×10^6 cells/mi for 7 days in GMP DC Medium (CellGenix, Freiburg, Germany) containing HEPES, GlutaMAX and Penicillin-Streptomycin solution (Thermo Fisher, Waltham, MA) in the presence of granulocyte-macrophage colony-stimulating factor (GM-CSF; 100 ng/ml; PeproTech, London, UK) and interleukin-4 (IL-4; 100 ng/ml; PeproTech). Cells were replenished on day 3 with fresh medium and cytokines. […]
(§2) Cell surface expression was investigated using the following fluorescently labeled antibodies: CD11c (B-Ly6), CD83 (HB15e), CD86 (BU63), ILT3 (ZM4.1), CD141 (M80), GARP (7611), CD103 (B-Ly7), MERTK (590H11G1E3), BTLA (J168-540), CD49b (P1E6-05), HLA-G (87G), LAP (FNLAP), from BD Biosciences (Franklin Lakes, NJ), BioLegend (San Diego, CA) and Thermo Fisher. DCs were washed and resuspended in staining buffer (phosphate-buffered saline supplemented with 0.5% BSA and 2 mM EDTA) and incubated with antibody for 20 min followed by washing before acquisition on a MACSQuant 10 flow cytometer (Miltenyi Biotec) and analyzed using FlowJo software (BD Biosciences). […]

DCs [2] = experiment: DC expression of CD83 (flow cytometry); type: cell-based, human; conditions: Example 13, FIG. 13(A); C1 10 nM, TGFbeta 10 ng/ml, RA 2 uM; compared to control DCs
Experimental: as §1, §2

CD4^+ T cells [3] = experiment: Capacity of DCs to induce T cell proliferation in allogeneic MLR (3H-thymidine); type: cell-based, human; conditions: for induction of T cell proliferation (CPM): Example 13, FIG. 13(G), compared to control DCs; for effect on the tolerogenic effect of RA: Example 13, summary
Experimental: (§3) CD14^+ monocytes were cultured at 1.25×10^6 cells/mi for 7 days in GMP DC Medium (CellGenix, Freiburg, Germany) containing HEPES, GlutaMAX and Penicillin-Streptomycin solution (Thermo Fisher, Waltham, MA) in the presence of granulocyte-macrophage colony-stimulating factor (GM-CSF; 100 ng/ml; PeproTech, London, UK) and interleukin-4 (IL-4; 100 ng/ml; PeproTech). Cells were replenished on day 3 with fresh medium and cytokines. Control DCs were differentiated in GM-CSF and IL-4 without addition of any further compounds and optionally further were treated with lipopolysaccharide (LPS; 0.5 ug/ml; Sigma-Aldrich, Saint Louise, MO) or a pro-inflammatory cytokine cocktail consisting of TNFalpha (10 ng/ml; PeproTech), IL-1 beta (10 ng/ml; PeproTech), and prostaglandin E2 (PGE2; 1 ug/ml; Sigma) on day 6 to generate stimulated immunogenic DCs. Tolerogenic DCs (tolDCs) were generated by treatment with various tolerogenic compounds: AhR agonist “C1” (C1; 20 nM; IMA-06201; Immunahr A B, Lund, Sweden) on days 0 and 3, TGFbeta1 (10 or 20 ng/ml; PeproTech) on day 3, and retinoic acid (2 uM; Sigma-Aldrich) on day 6. Control tolDC for comparison were established by treatment with Dexamethasone (Dex; 100 nM; Sigma-Aldrich) and Vitamin D3 (VitD3; 100 nM, StemCell Technologies) on day 3. Phenotypic stability of TolDCs was investigated by addition of LPS (0.5 ug/ml) or a pro-inflammatory cytokine cocktail consisting of TNFalpha (10 ng/ml), IL-1beta (10 ng/ml), PGE2 (1 ug/ml), and for Example 24 also IL-6 (10 ng/ml), for the last 24 hours of culture. On day 7, DCs were harvested and washed extensively before phenotyping and functional assays were performed.
In order to analyse the T cell stimulatory capacity of the generated DC populations, allogeneic MLRs were performed. DC/T cell cultures were carried out in complete medium: RPMI-1640 (Thermo Fisher) containing fetal bovine serum (FBS; 10%; Thermo Fisher), HEPES, GlutaMAX and Penicillin-Streptomycin solution. T cells (10^5 cells/well) were cultured with DCs at a T cell: DC ratio of 10:1 for 5-7 days. Proliferation was determined by incorporation of ^3H-thymidine for the last 18 hours of culture. For determination of CD4^+CD49b^+LAG3^+ Tr1 cells, cells were phenotyped as described below. For determination of CD25^hiFoxp3^+ Treg induction, the T cells from the MLR cultures were rested for additionally 7 days in complete medium containing IL-2 (20 IU/ml; PeproTech) and then subjected to phenotyping as described below.
Control DCs were differentiated from CD14^+ monocytes by culturing in GM-CSF and IL-4 for 7 days. Control DCs were either unstimulated or stimulated with LPS which was added on day 6 to generate immunogenic control DCs. […] TolDCs for comparison were established by treatment with Dex at 100 nM and VitD3 at 100 nM on day 3. On day 6, some of the DCs were treated with LPS (FIG. 5 (A); black bars) or a pro-inflammatory cytokine cocktail consisting of TNFalpha, IL-1beta and PGE2 (FIG. 5 (B); black bars) to test for phenotypical stability under various conditions. All cells were harvested on day 7 and cocultures with CD4^+ T cells were setup in an MLR setting at a T cell:DC ratio of 10:1. At the end of the 7-day cultures, proliferation of T cells was determined by ^3H-thymidine incorporation.
Various compounds were tested for their capacity to induce a tolerogenic phenotype in DCs. […] AhR agonist C1 (AhR ag) at 10 nM on days 0 and 3, TGFbeta at 10 ng/ml on day 3, and RA at 2 uM on day 6. […]

DCs [4] = experiment: DC expression of CD86 (flow cytometry); type: cell-based, human
Experimental: as §1, §2

CD4^+ T cells [5] = experiment: Capacity of DCs to induce CD25^hiFoxp3^+ Tregs in time-extended MLR; type: cell-based, human; conditions: Example 13, FIG. 13(H); compared to control DCs
Experimental: as §3
In order to analyse the T cell stimulatory capacity of the generated DC populations, allogeneic MLRs were performed. DC/T cell cultures were carried out in complete medium: RPMI-1640 (Thermo Fisher) containing fetal bovine serum (FBS; 10%; Thermo Fisher), HEPES, GlutaMAX and Penicillin-Streptomycin solution. […] Proliferation was determined by incorporation of ^3H-thymidine for the last 18 hours of culture. […]

human DCs = conditions: cited from earlier work
DCs [6] = experiment: DC expression of ILT3 (flow cytometry); type: cell-based, human; conditions: Example 13, FIG. 13(C); compared to control DCs
Experimental: as §1, §2

T cells = conditions: Bakdash et al, 2015; cited from earlier work
DCs [7] = experiment: DC frequency of CD141^+GARP^+ cells (flow cytometry); type: cell-based, human; conditions: Example 13, FIG. 13(F); compared to control DCs
Experimental: as §1, §2

DCs [8] = experiment: DC tolerogenic index ILT3/CD86 (MFI ratio); type: cell-based, human; conditions: Example 13, FIG. 13(D); compared to control DCs
Text: The optimal tolDCs should express both low levels of co-stimulatory molecules and high levels of tolerogenic molecules. Thus, to take into account the combined effect of this, the ratio between the expression levels of representative tolerogenic and co-stimulatory molecules could be depicted as a proxy for the tolerogenic capacity of a certain subset of tolDCs. FIGS. 4 (A) and (B) show such tolerogenic index, defined as the ILT3/CD86 expression (MFI) ratio, on DCs cultured under various conditions in the absence (FIG. 4 (A); grey bars) or presence of LPS (FIG. 4 (B); black bars).

[9] = during DC differentiation and maturation

Compound | CD103 expression (MFI) on DCs (DCs [1]) | CD83 expression (MFI) on DCs (DCs [2]) | induction of T cell proliferation (CPM) (CD4^+ T cells [3]) | effect on the tolerogenic effect of RA (CD4^+ T cells [3]) | CD86 expression (MFI) on DCs (DCs [4]; Example 13, FIG. 13(B), compared to control DCs) | induction of Tregs (CD4^+CD25^+Foxp3^+) (CD4^+ T cells [5]) | differentiation of naïve T cells into Treg cells by treated DCs (human DCs; Jurado-Manzano et al, 2017) | expression of the enzyme IDO (human DCs; [9]) | production of pro-inflammatory cytokines (human DCs; [9]) | CD86 expression (MFI) on DCs (DCs [4]; FIG. 2(B), whether or not stimulated with LPS, compared to corresponding control DCs) | ILT3 expression (MFI) on DCs (DCs [6]) | differentiation of Treg cells (T cells) | gut-homing specificity in T cells (T cells) | frequency of GARP^+CD141^+ cells (DCs [7]) | tolerogenic ratio (ILT3/CD86) (DCs [8])
CCN(C(=O)c1c(O)c2c(Cl)cccc2n(C)c1=O)c1ccccc1 [AhR agonist, N-ethyl-N-phenyl-5-chloro-1,2-dihydro-4-hydroxy-1-methyl-2-oxo-quinoline-3-carboxamide] | higher expression of CD103 | lower expression | slightly more T cell proliferation | strengthens the tolerogenic effect of RA | lower expression | slightly more Tregs |  |  |  |  |  |  |  |  | 
O=Cc1c2c(cc3c1=Nc1ccccc1-3)=Nc1ccccc1-2 [FICZ, 6-formylindolo[3,2-b]carbazole] |  |  |  |  |  |  | able to induce the differentiation | increased expression of the enzyme IDO | reduced production of pro-inflammatory cytokines such as IL-6 and TNF-alpha |  |  |  |  |  | 
CC1=C(/C=C/C(C)=C/C=C/C(C)=C/C(=O)O)C(C)(C)CCC1 [RA, all-trans retinoic acid] |  |  | less T cell proliferation |  |  | more Tregs |  |  |  | no resistance to upregulate CD86 | higher expression of ILT3 | enhance the differentiation of Foxp3^+ inducible as well as IL-10 producing Treg cells | induce gut-homing specificity in T cells | higher frequency of GARP^+CD141^+ cells | 
TGFbeta: transforming growth factor beta; TGFbeta1 (PeproTech) used in the examples | slightly higher |  | less T cell proliferation | strengthens the tolerogenic effect of RA |  | more Tregs |  |  |  |  |  |  |  |  | slightly higher
